Activity calls are given as the source filed them. No cut-off for these calls is given here. Residues, ends and D or L forms follow the SMILES beside them.
Assays:
N9 [1] = experiment: Inhibition of NLRP3 inflammasome activation in LPS/ATP-stimulated mouse N9 cells assessed as increase in intracellular chloride level preincubated with LPS for 4 hrs followed by compound addition for 30 mins and measured after ATP stimulation for 50 mins by MQAE dye based analysis; assay type: cell-based; details: time 80.0 min
N9 [2] = experiment: Inhibition of NLRP3 inflammasome activation in LPS/amyloid-beta-stimulated mouse N9 cells assessed as reduction in IL-1beta secretion at 10 to 20 uM preincubated with LPS for 4 hrs followed by compound addition for 30 mins and measured after amyloid-beta stimulation for 24 hrs by ELISA; assay type: cell-based; details: dose 10-20 µM, time 24.5 hrs
N9 [3] = experiment: Inhibition of NLRP3 inflammasome activation in LPS/amyloid-beta-stimulated mouse N9 cells assessed as reduction in IL-1beta secretion at 10 to 20 uM preincubated with LPS for 4 hrs followed by compound addition for 30 mins and measured after amyloid-beta stimulation for 16 hrs by ELISA; assay type: cell-based; details: dose 10-20 µM, time 16.5 hrs
N9 [4] = experiment: Inhibition of NLRP3 inflammasome activation in LPS/ATP-stimulated mouse N9 cells assessed as reduction in IL-1beta mRNA expression by measuring remaining activity at 20 uM by qRT-PCR analysis relative to control; assay type: cell-based
N9 [5] = experiment: Inhibition of NLRP3 inflammasome activation mediated pyroptosis in LPS/amyloid-beta-stimulated mouse N9 cells assessed as reduction in cell death at 5 to 30 uM by MTT assay; assay type: cell-based; details: dose 5-30 µM
N9 [6] = experiment: Inhibition of AIM2 inflammasome activation mediated pyroptosis in LPS/poly(dA:dT)-stimulated mouse N9 cells assessed as reduction in cell death at 50 uM by MTT assay; assay type: cell-based
N9 [7] = experiment: Inhibition of NLRP3 inflammasome activation mediated pyroptosis in LPS/tau-stimulated mouse N9 cells assessed as reduction in cell death at 5 to 30 uM by MTT assay; assay type: cell-based; details: dose 5-30 µM
N9 [8] = experiment: Inhibition of NLRP3 inflammasome activation mediated in LPS/alpha-synuclein-stimulated mouse N9 cells assessed as increase in mitochondrial membrane potential by flow cytometric analysis; assay type: cell-based; details: dose 5-30 µM
N9 [9] = experiment: Effect on TNF-alpha mRNA expression in LPS/ATP-stimulated mouse N9 cells at 1 to 100 uM by qRT-PCR analysis; assay type: functional, cell-based; details: dose 1-100 µM
N9 [10] = experiment: Inhibition of NLRP3 inflammasome activation mediated pyroptosis in LPS/alpha-synuclein-stimulated mouse N9 cells assessed as reduction in cell death at 5 to 30 uM by MTT assay; assay type: cell-based; details: dose 5-30 µM

Question: Which results are given for `CC[C@H](C)[C@H](NC(=O)[C@H](C)NC(=O)[C@H](C)NC(=O)[C@H](CC(C)C)NC(=O)[C@@H](NC(=O)[C@H](Cc1c[nH]c2ccccc12)NC(=O)[C@@H](N)C(C)C)[C@@H](C)CC)C(=O)N[C@@H](CC(N)=O)C(=O)N[C@@H](CCCNC(=N)N)C(=O)N[C@@H](CCCNC(=N)N)C(=O)O` (H-VWILAAINRR-OH)?
Answer: inhibition (N9 [1]): Active; inhibition (N9 [2]): Dose-dependent-effect; inhibition (N9 [3]): Dose-dependent-effect; Activity (N9 [4]): 50%; inhibition (N9 [5]): Active; inhibition (N9 [6]): Active; inhibition (N9 [7]): Active; inhibition (N9 [8]): Dose-dependent-effect; Activity (N9 [9]): inactive; inhibition (N9 [10]): Active

Reference: ChEMBL document CHEMBL6121055, “Strategic Mutations in Designer Native Peptides Combat NLRP3 Inflammasome Activation in Neurodegenerative Disorders” (J Med Chem, 2025)
